Test results published in PubChem BioAssay (NCI).
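Cells were grown in 96-well plates and exposed to each compound for 48 hours at five concentrations; endpoints were interpolated linearly between bracketing concentrations, or set to the highest concentration if not reached. Definition used: TGI = concentration required for complete inhibition of growth.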

Columns and labels:
Experiment in all cases: NCI anticancer screen, dose series, 48 h
786-0 renal = system: 786-0 renal
UACC-62 melanoma = system: UACC-62 melanoma
HT29 colon = system: HT29 colon
HL-60(TB) leukemia = system: HL-60(TB) leukemia
EKVX NSCLC = system: EKVX NSCLC
OVCAR-4 ovarian = system: OVCAR-4 ovarian
UO-31 renal = system: UO-31 renal
KM20L2 colon = system: KM20L2 colon
U251 CNS = system: U251 CNS
DLD-1 colon = system: DLD-1 colon

With `COc1ccc(C)cc1-c1cc(Sc2ccccc2)c(-c2cc(C)ccc2OC)o1` the TGI (786-0 renal) was > 31.6 µM, the TGI (UACC-62 melanoma) was > 31.6 µM and the TGI (HT29 colon) was > 31.6 µM. The TGI (HL-60(TB) leukemia) was > 31.6 µM, the TGI (EKVX NSCLC) was > 31.6 µM and the TGI (OVCAR-4 ovarian) was > 31.6 µM. For the same molecule, the TGI (UO-31 renal) was > 31.6 µM, the TGI (KM20L2 colon) was > 31.6 µM and the TGI (U251 CNS) was > 31.6 µM. The TGI (DLD-1 colon) was > 31.6 µM.

`Cc1ccc(Oc2ccc(C)cc2N)cc1` was tested, and the TGI (786-0 renal) was > 100 µM, the TGI (UACC-62 melanoma) was > 100 µM and the TGI (HT29 colon) was > 100 µM. For the same molecule, the TGI (HL-60(TB) leukemia) was > 100 µM, the TGI (EKVX NSCLC) was > 100 µM and the TGI (OVCAR-4 ovarian) was > 100 µM. The TGI (UO-31 renal) was > 100 µM, the TGI (KM20L2 colon) was > 100 µM and the TGI (U251 CNS) was > 100 µM. For the same molecule, the TGI (DLD-1 colon) was > 100 µM.

For `CCc1c(OC(C)=O)c2c(NC3OCC(OC(C)=O)C(OC(C)=O)C3OC(C)=O)nc(SC)nc2oc1=O` (stereo not given), the TGI (786-0 renal) was > 100 µM, the TGI (UACC-62 melanoma) was > 100 µM and the TGI (HT29 colon) was > 100 µM. For the same molecule, the TGI (HL-60(TB) leukemia) was > 100 µM, the TGI (EKVX NSCLC) was > 100 µM and the TGI (OVCAR-4 ovarian) was > 100 µM. The TGI (UO-31 renal) was > 100 µM, the TGI (KM20L2 colon) was > 100 µM and the TGI (U251 CNS) was > 100 µM. For the same molecule, the TGI (DLD-1 colon) was > 100 µM.

`CN(C)CC1CC/C(=C\c2ccc(O)cc2)C1=O` (stereo not given) gave a TGI (786-0 renal) of 4.91 µM, a TGI (UACC-62 melanoma) of 15.5 µM and a TGI (HT29 colon) of 11.5 µM. For the same molecule, the TGI (HL-60(TB) leukemia) was 2.91 µM, the TGI (EKVX NSCLC) was 14.4 µM and the TGI (OVCAR-4 ovarian) was 18.5 µM. The TGI (UO-31 renal) was 26.5 µM, the TGI (KM20L2 colon) was 22.1 µM and the TGI (U251 CNS) was 12.5 µM. For the same molecule, the TGI (DLD-1 colon) was 6.27 µM.

With `O=S(=O)(N/N=C/c1cccc(/C=N/NS(=O)(=O)c2ccccc2)c1)c1ccccc1` the TGI (786-0 renal) was > 100 µM, the TGI (UACC-62 melanoma) was > 100 µM and the TGI (HT29 colon) was > 100 µM. The TGI (HL-60(TB) leukemia) was > 100 µM, the TGI (EKVX NSCLC) was > 100 µM and the TGI (OVCAR-4 ovarian) was > 100 µM. The TGI (UO-31 renal) was > 100 µM, the TGI (KM20L2 colon) was > 100 µM and the TGI (U251 CNS) was > 100 µM. For the same molecule, the TGI (DLD-1 colon) was > 100 µM.

For `CC(C)(C)c1cc2c(O)c3cccc4c(=O)c5cccc6c5-c(c34)c2c(c1)c6=O`, the TGI (786-0 renal) was > 100 µM, the TGI (UACC-62 melanoma) was > 100 µM and the TGI (HT29 colon) was > 100 µM. For the same molecule, the TGI (HL-60(TB) leukemia) was > 100 µM, the TGI (EKVX NSCLC) was > 100 µM and the TGI (OVCAR-4 ovarian) was > 100 µM. The TGI (UO-31 renal) was > 100 µM, the TGI (KM20L2 colon) was > 100 µM and the TGI (U251 CNS) was > 100 µM. The TGI (DLD-1 colon) was > 100 µM.

With `COc1nc(NC2OC(COC(C)=O)C(OC(C)=O)C(OC(C)=O)C2OC(C)=O)c2c(OC(C)=O)cc(=O)oc2n1` (stereo not given) the TGI (786-0 renal) was > 100 µM, the TGI (UACC-62 melanoma) was > 100 µM and the TGI (HT29 colon) was > 100 µM. The TGI (HL-60(TB) leukemia) was > 100 µM, the TGI (EKVX NSCLC) was > 100 µM and the TGI (OVCAR-4 ovarian) was > 100 µM. The TGI (UO-31 renal) was > 100 µM, the TGI (KM20L2 colon) was > 100 µM and the TGI (U251 CNS) was > 100 µM. For the same molecule, the TGI (DLD-1 colon) was > 100 µM.

With `CN(C)CCn1c2c3ccccc3ccc2c2oc(=O)c3ccccc3c21` the TGI (786-0 renal) was 7.14 µM, the TGI (UACC-62 melanoma) was 71 µM and the TGI (HT29 colon) was 16.6 µM. The TGI (HL-60(TB) leukemia) was > 100 µM, the TGI (EKVX NSCLC) was 36.4 µM and the TGI (OVCAR-4 ovarian) was 28.1 µM. It also gave a TGI (UO-31 renal) of 8.94 µM, a TGI (KM20L2 colon) of 33.8 µM and a TGI (U251 CNS) of 20 µM. The TGI (DLD-1 colon) was > 100 µM.

In the case of `COC(=O)C(CCCN1C(=O)c2ccccc2C1=O)C(=O)OC`, the TGI (786-0 renal) is reported as > 100 µM, the TGI (UACC-62 melanoma) is reported as > 100 µM and the TGI (HT29 colon) is reported as > 100 µM. The TGI (HL-60(TB) leukemia) was > 100 µM, the TGI (EKVX NSCLC) was > 100 µM and the TGI (OVCAR-4 ovarian) was > 100 µM. The TGI (UO-31 renal) was > 100 µM, the TGI (KM20L2 colon) was > 100 µM and the TGI (U251 CNS) was > 100 µM. The TGI (DLD-1 colon) was > 100 µM.

With `CCCCN(CCCC)C(=O)C(=O)C(C(=O)c1ccc(OC)cc1)c1ccc(OC)cc1` (stereo not given) the TGI (786-0 renal) was > 100 µM, the TGI (UACC-62 melanoma) was > 100 µM and the TGI (HT29 colon) was > 100 µM. For the same molecule, the TGI (HL-60(TB) leukemia) was > 100 µM, the TGI (EKVX NSCLC) was > 100 µM and the TGI (OVCAR-4 ovarian) was > 100 µM. The TGI (UO-31 renal) was > 100 µM, the TGI (KM20L2 colon) was > 100 µM and the TGI (U251 CNS) was > 100 µM. For the same molecule, the TGI (DLD-1 colon) was > 100 µM.

For `O=C(/C=C/c1ccc(O)cc1)c1ccc(O)cc1`, the TGI (786-0 renal) was > 100 µM, the TGI (UACC-62 melanoma) was > 66.8 µM and the TGI (HT29 colon) was 48.5 µM. The TGI (HL-60(TB) leukemia) was > 75.1 µM, the TGI (EKVX NSCLC) was 97.1 µM and the TGI (OVCAR-4 ovarian) was > 100 µM. The TGI (UO-31 renal) was 51.2 µM, the TGI (KM20L2 colon) was 47 µM and the TGI (U251 CNS) was 46.6 µM. For the same molecule, the TGI (DLD-1 colon) was 36.9 µM.
